# Publication PMC5554220, “A Novel Aldosterone Antagonist Limits Renal Injury in 5/6 Nephrectomy” (Scientific Reports, 2017)
# Tests used:
# [1] = system: rats with 5/6 renal ablation (Nx); test: Protocol 2 (late treatment), 5/6 renal ablation (Nx); assay type: in vivo, male Munich-Wistar rats; conditions: Ly as an add-on to L, Day 150
# Excerpt: One-hundred forty-five adult male Munich-Wistar rats, obtained from a local facility at the Faculty of Medicine, University of São Paulo, weighing between 220 and 250 g, were used in this study. All experimental procedures were approved by the local Research Ethics Committee (Comissão de Ética para Análise de Projetos de Pesquisa do Hospital das Clínicas da Faculdade de Medicina da Universidade de São Paulo, CAPPesq, process n° 0905/09), and carried out following strictly our institutional guidelines and current international standards for manipulation and care of laboratory animals. Body weights and general conditions were assessed daily. Five-sixths renal ablation (Nx) was performed as a single-step procedure under anesthesia with ketamine 50 mg/kg and xylazine 10 mg/kg im. After ventral laparotomy, the right kidney was excised and two or three branches of the left renal artery were ligated, so as to promote infarction of two-thirds of the left kidney. The operation was invariably well tolerated. Sham-operated rats underwent anesthesia and manipulation of the renal pedicles without removal of renal mass. After surgery, rats received enrofloxacin and, upon recovery, had free access to tap water and regular rodent chow containing 0.5 Na and 22% protein (Nuvital Labs, Curitiba, Brazil), and were kept at 23 ± 1 °C and 60 ± 5% relative air humidity, under an artificial 12–12 hour light/dark cycle. Rats were then treated following two different experimental protocols (described later).
# In Protocol 2, adult male Munich-Wistar rats were subjected to Nx as described earlier, and left untreated for two months. At this time, TCP and UalbV were assessed as described earlier. Rats with TCP ≤ 170 mmHg or UalbV ≤ 40 mg/day were excluded from the study. The remaining […] Nx rats were divided into four experimental groups: Nx + V (N = 14), untreated Nx rats; Nx + L (N = 15), receiving oral L, 50 mg/kg in drinking water; Nx + L + Eple (N = 14), receiving L and Eple (N = 14), 150 mg/kg/day; and Nx + L + Ly (N = 14), receiving L and Ly (20 mg/kg/day) as described before. A group of S rats (N = 16) was also included. All groups were followed for 90 days after treatments were started (150 days after nephrectomy), with monthly measurement of TCP and UalbV. At the end of this period, rats were anesthetized, blood was collected, and the renal tissue was perfusion-fixed and prepared for histomorphometric and immunohistochemical examination in the same manner as for Protocol 1.
# Histomorphometric analysis was performed blindly by two independent observers. The extent of glomerular injury was estimated, in PAS-stained sections, by determining the percentage of glomeruli with sclerotic lesions. The fraction of the renal cortical area occupied by interstitial tissue (%INT) was estimated in 25 consecutive microscopic fields of Masson-stained sections by a point-counting technique, at a final magnification of 200X, under a 144-point grid.
# Immunohistochemistry was performed on 4-μm-thick sections, mounted on glass slides precoated with 2% silane. Sections were deparaffinized and rehydrated by conventional techniques, then heated in citrate buffer for antigen retrieval and incubated overnight with the primary antibody at 4 °C (no antibody in negative control experiments). Primary antibodies used were: monoclonal mouse anti-rat ED-1 (Serotec, Oxford, UK); polyclonal rabbit anti-human AngII (Peninsula Laboratories, San Carlos, CA); and polyclonal rabbit anti-collagen I (Abcam, Cambridge, UK).
# For ED-1 detection, sections were preincubated with 5% normal rabbit serum to prevent nonspecific binding, then incubated overnight at 4 °C with the primary antibody diluted in BSA at 1%. […]
# Nx rats = test: Preliminary experiments to determine the doses of Eple and Ly; assay type: in vivo
# Method: Preliminary experiments were performed to exclude the possibility that any differences between Eple and Ly, both in monotherapy and as add-ons to L, were simply due to the use of inadequately low doses of either compound. In the first set of experiments, Nx rats received Eple at the recommended dose of 85 mg/kg, and at 150 mg/kg, higher than in most studies reported so far. […] Other Nx rats received Ly at either 12 mg/kg (the recommended dose) or 20 mg/kg. […] Based on these preliminary results, we set the doses of Eple and Ly at 150 mg/kg and 20 mg/kg, respectively.
smiles,measurement,setting,value
O=c1[nH]c2ccc(/C=C3\c4ccc(F)cc4COc4cc(F)ccc43)cc2[nH]1 [Ly],Interstitial expansion (cortical interstitial area),[1],reduced to levels significantly lower than in the Nx + V group
same,"Maximal nontoxic dose, defined by stunting of body growth",Nx rats,20 mg/kg
same,Dose-response effect on the parameters studied,Nx rats; Ly 12 mg/kg vs 20 mg/kg,A dose-response effect was observed for most parameters
same,Body growth,Nx rats; Ly 30 mg/kg,severe growth stunting
